Data: patent US8093273B2, “Flavanoids and isoflavanoids for the prevention and treatment of cardiovascular diseases” (Resverlogix Corp., priority 2004, dated 2012)
Where a name gives a salt, the structure may show the parent alone.

Assays:
human ApoA-I promoter = test: ApoA-I promoter induction in Caco-2 intestinal cells (pAI.474-Luc luciferase reporter); type: cell-based; conditions: Caco-2 cells, 15 μM, 48 hours incubation, luciferase activity vs control samples
Description: To examine the effects of compounds of the invention to increase ApoA-I expression, Caco-2 cells, an intestinal cell line derived from human epithelial intestinal cells, were grown under conditions recommended by the ATCC and summarized in United States Patent Application Publication No. 20040033480 (“Wong”), incorporated herein by reference.
Briefly, the promoter region of the gene encoding human ApoA-I was isolated and ligated upstream of the firefly luciferase gene to construct the reporter plasmid pAI.474-Luc. This reporter plasmid and pRSV-β-galactosidase (as a control for transfection efficiency) were co-transfected to Caco-2 cells. The Caco-2 cells were then incubated in a MEM selection media containing 20% fetal calf serum supplemented with G418 (final concentration: 0.5 mg/mL, Gibco) to give established strains that stably express from the reporter gene. The strains were seeded in 6-well culture plates and incubated for 48 hours at 37° C. under 5% carbon dioxide. Cells were starved for 24 hrs in MEM selection media containing 0.5% FBS. Then, a solution of a compound of the invention in DMSO or other appropriate solvent was added to the wells at a final concentration of 0 to 100 μM in MEM selection media containing 0.5% FBS.
After further incubation for 48 hours, the cells were harvested and lysed using Reporter Lysis Buffer (PROMEGA E3971), and 50 μL of luciferase assay reagent (PROMEGA E4550 Luciferase Reporter 1000 assay system) was added to measure luciferase activity with a luminometer (Fluoroskan Ascent FL from Thermo electron Corporation). Luciferase activity was normalized to lysate protein concentrations, measured using Bradford Reagent (BioRad Protein Assay reagent Cat #500-0006). The luciferase activity of cells treated with various concentrations of test compounds was compared to that of solvent control sample (i.e., solvent without any compound of the present invention added) and untreated control sample.

Row | Compound | melting point [°C] | ApoA-I Promoter Induction (human ApoA-I promoter)
1 | Cl.Nc1cccc2c(=O)cc(-c3ccc(O)c(F)c3)oc12 | 256.4 to 258.5 | –
2 | O=c1cc(-c2ccc(C[n+]3ccccc3)cc2)oc2ccc(O)cc12.[Cl-] | 243 to 247 | –
3 | O=c1cc(-c2cccc(O)c2)oc2ccccc12 [2-(3-Hydroxyphenyl)-4H-chromen-4-one, 2-(3-hydroxyphenyl)-4H-chromen-4-one, reference compound] | – | increased
4 | O=c1cc(-c2ccc(O)cc2)oc2ccccc12 [2-(4-Hydroxyphenyl)-chromen-4-one, 2-(4-Hydroxy-phenyl)-chromen-4-one, reference compound] | – | increased
5 | COc1cc(-c2cc(=O)c3ccccc3o2)ccc1O [2-(4-hydroxy-3-methoxyphenyl)-4H-chromen-4-one, reference compound] | – | increased
6 | O=c1cc(-c2ccccc2)oc2ccccc12 [2-Phenyl-4H-chromen-4-one, 2-phenyl-4H-chromen-4-one, reference compound] | – | increased
7 | O=c1c(-c2ccc(O)cc2)coc2cc(O)cc(O)c12 [5,7-dihydroxy-3-(4-hydroxyphenyl)-4H-chromen-4-one, reference compound] | – | increased
8 | O=c1cc(-c2ccc(O)cc2)oc2cccc(O)c12 [5-Hydroxy-2-(4-hydroxy-phenyl)-chromen-4-one, reference compound] | – | increased
9 | O=c1cc(-c2ccccc2)oc2cccc(O)c12 [5-Hydroxy-2-phenyl-4H-chromen-4-one, 5-Hydroxy-2-phenyl-chromen-4-one, reference compound] | – | increased
10 | O=c1cc(-c2ccc(O)cc2)oc2ccc(O)cc12 [6-hydroxy-2-(4-hydroxyphenyl)-4H-chromen-4-one, reference compound] | – | increased
11 | O=c1cc(-c2ccc(O)cc2)oc2cc(O)ccc12 [7-Hydroxy-2-(4-hydroxy-phenyl)-chromen-4-one, reference compound] | – | increased
12 | O=c1cc(-c2ccccc2)oc2cc(O)ccc12 [7-Hydroxy-2-phenyl-4H-chromen-4-one, 7-hydroxy-2-phenyl-4H-chromen-4-one, reference compound] | – | increased
13 | COc1ccc(-c2cc(=O)c3c(F)cc(F)cc3o2)cc1 [Example 1, 5,7-Difluoro-2-(4-methoxy-phenyl)-chromen-4-one] | – | no increase
14 | O=c1cc(-c2ccc(O)cc2)oc2cc(F)cc(F)c12 [Example 2, 5,7-Difluoro-2-(4-hydroxyphenyl)-4H-chromen-4-one] | – | increased
15 | COc1ccc(-c2cc(=O)c3ccccc3o2)cc1 [Example 4, 2-(4-Methoxy-phenyl)-4H-chromen-4-one] | – | increased
16 | O=c1cc(-c2ccc(O)cc2)oc2c(O)cccc12 [Example 5, 8-Hydroxy-2-(4-hydroxy-phenyl)-4H-chromen-4-one] | – | increased
17 | CC(=O)Nc1cc(O)ccc1-c1cc(=O)c2ccccc2o1 [Example 8, N-[5-Hydroxy-2-(4-oxo-4H-chromen-2-yl)-phenyl]acetamide] | 253 to 255 | –
18 | O=c1cc(-c2ccc(O)cc2)oc2cc[n+]([O-])cc12 [Example 32, 2-(4-Hydroxyphenyl)-4-oxo-4H-pyrano[3,2-c]pyridine 6-oxide] | – | no increase
19 | O=c1cc(-c2ccc(O)cc2)[nH]c2cc(O)cc(O)c12 [Example 50, 5,7-Dihydroxy-2-(4-hydroxyphenyl)-quinolin-4(H)-one] | – | increased
20 | Oc1ccc(-c2ccc3ccccc3c2)cc1 [Example 65, 4-Naphthalen-2-yl-phenol] | – | increased
21 | N=C(N)NCCCC(N)C(=O)Oc1ccc(-c2cc(=O)c3ccccc3o2)cc1 (stereo not drawn) [Example 76, 2-Amino-5-guanidino-pentanoic acid 4-(4-oxo-4H-chromen-2-yl)phenyl ester trihydrochloride] | – | increased
